Assay results taken from patent US10624828B2, “Personal care compositions comprising a 2-pyridinol N-oxide material and an iron chelator” (The Procter & Gamble Company, priority 2017, dated 2020).
Marks after values point to notes of the source that are not given here.

Experiments:
[1] = tested on: Staphylococcus aureus ATCC 6538; test: Minimum Inhibitory Concentration (MIC), broth dilution, visual pellet reading; format: cell-based; conditions: S. aureus ATCC 6538, material alone, 37° C., 24 hours, average of triplicates
Procedure: The minimum inhibitory concentration (“MIC”) is the concentration (in ppm) of anti-bacterial agent that causes growth inhibition of bacteria so that no pellet is formed in the culture medium (as explained below in the method). […] Staphylococcus aureus ATCC 6538 is cultured onto tryptic soy agar (TSA) (Oxoid CM0131) over 24 hours. […] This gives 5×10^5 cfu/mL. […] The plate is then placed into a plastic sheet to minimize evaporation. The plate is then incubated at 37° C. for 24 hours. After 24 hours, the plate is removed and read visually to determine if a pellet is formed at the bottom of the well versus positive (without adding antibacterial material) and negative (without bacterial inoculum) growth controls. […] The experiment is carried out in triplicates and the MIC values are determined by the average of the results.

[2] = tested on: Staphylococcus aureus ATCC 6538; test: Combinatorial Minimum Inhibitory Concentration (cMIC), OD 620 nm; conditions: for MIC: minimum amount of chelant at which there is no bacteria growth: chelator alone (0 ppm piroctone olamine)
Procedure: A Combinatorial Minimum Inhibitory Concentration (“cMIC”) is used to determine the combinatorial effects of two chemicals on anti-bacterial activity in a tissue culture setting. Herein, the cMIC is a measure of the Minimum Inhibitory concentrations of 1-hydroxy-4-methyl-6-(2,4,4-trimethylpentyl)-2-pyridone monoethanolamine salt in combination with a chelant or vice versa.
Method Overview: • a. Each cMIC assay is run in triplicates. • b. Staphylococcus aureus ATCC 6538 is cultured on tryptic soy agar (TSA) (Oxoid CM0131) over 24 hours. The single colonies are then transferred into saline and mixed through vortex to obtain an optical density (OD) of 0.08-0.13 at 620 nm. 200 uL of this bacterial suspension is added to 19.8 mL of Mueller Hinton Broth (MHB) (BD 212322). This gives 5×10^5 cfu/mL. 100 uL of this bacteria-MHB mix is added to a 96 well flat-bottomed plate (TRP 92196). • c. 1-hydroxy-4-methyl-6-(2,4,4-trimethylpentyl)-2-pyridone monoethanolamine salt is pipetted into the wells in varying concentrations as indicated below. • d. Different Chelants are pipetted into the wells in varying concentrations, as indicated below. • e. The plates are then read using a spectrophotometer at 620 nm. This is the 0-hour reading. • f. The plates are incubated at 37° C. for 18 hours with shaking at 50 rpm. • g. The optical density of the plate is then measured using a spectrophotometer at 620 nm. • h. The OD value is calculated as subtraction of the readings between 18-hour and the 0-hour. • i. cMIC is determined as the minimal concentration of 1-hydroxy-4-methyl-6-(2,4,4-trimethylpentyl)-2-pyridone monoethanolamine salt in combination with a chelant or vice versa, corresponding to the well whose OD value is less than 10% of the OD value of the control well without 1-hydroxy-4-methyl-6-(2,4,4-trimethylpentyl)-2-pyridone monoethanolamine salt and chelator (full growth).

[3] = NIST Standard Reference Database 46; cited from earlier work
[4] = 3.125 ppm piroctone olamine combined with chelator (62.5 ppm DTPMP or 250 ppm DTPA), (MIC − cMIC)/MIC x 100%
[5] = 6.25 ppm piroctone olamine combined with chelator (15.6 ppm DTPMP or 125 ppm DTPA)
[6] = 6.25 ppm piroctone olamine combined with chelator (15.6 ppm DTPMP or 125 ppm DTPA), (MIC − cMIC)/MIC x 100%
[7] = in the presence of 3.125 ppm piroctone olamine
[8] = in the presence of 6.25 ppm piroctone olamine

SMILES | MIC (ppm) [1] | MIC: minimum amount of chelant at which there is no bacteria growth [2] | Log K1 (iron binding affinity) [3] | Antibacterial Efficiency of piroctone olamine boosted by Chelator [2, 4] | boost of antibacterial efficacy of piroctone olamine alone (fold) [2, 5] | Antibacterial Efficiency of piroctone olamine boosted by Chelator [2, 6] | cMIC: minimum amount of chelant at which there is no bacteria growth in the presence of piroctone olamine [2, 7] | cMIC: minimum amount of chelant at which there is no bacteria growth in the presence of piroctone olamine [2, 8] | also measured
Cc1cc(CC(C)CC(C)(C)C)n(O)c(=O)c1.NCCO (stereo not shown) [reference compound] | – | – | – | – | – | – | – | – | MIC ([1]; Staphylococcus aureus, ATCC6538): 12.5 µg/mL; Antibacterial Efficiency of piroctone olamine boosted by Chelator ([2]; 12.5 ppm piroctone olamine, 0 ppm chelator): 0; cMIC: minimum amount of piroctone olamine at which there is no bacteria growth in the presence of chelant ([2]; in the presence of 125 ppm DTPA): 6.25** ppm; cMIC: minimum amount of piroctone olamine at which there is no bacteria growth in the presence of chelant ([2]; in the presence of 250 ppm DTPA): 3.125** ppm; MICpiroctone olamine: minimum amount of the salt at which there is no bacteria growth ([2]; piroctone olamine alone (0 ppm chelator)): 12.5* ppm
CC(=O)N(O)CCCCCNC(=O)CCC(=O)N(O)CCCCCNC(=O)CCC(=O)N(O)CCCCCN [Desferrioxamine, reference compound] | – | – | 31 | – | – | – | – | – | –
CC(C(=O)O)N(CC(=O)O)CC(=O)O (stereo not shown) [MGDA, Methylglycine diacetic acid] | – | – | 16 | – | – | – | – | – | –
O=C(O)CC(O)(CC(=O)O)C(=O)O [Citric Acid] | – | – | 11 | – | – | – | – | – | –

More lines, main results first:

MIC (ppm) [1] | MIC: minimum amount of chelant at which there is no bacteria growth [2] | SMILES | Log K1 (iron binding affinity) [3] | Antibacterial Efficiency of piroctone olamine boosted by Chelator [2, 4] | boost of antibacterial efficacy of piroctone olamine alone (fold) [2, 5] | Antibacterial Efficiency of piroctone olamine boosted by Chelator [2, 6] | cMIC: minimum amount of chelant at which there is no bacteria growth in the presence of piroctone olamine [2, 7] | cMIC: minimum amount of chelant at which there is no bacteria growth in the presence of piroctone olamine [2, 8] | also measured
500 ppm | 500^# ppm | O=C(O)CN(CCN(CC(=O)O)CC(=O)O)CCN(CC(=O)O)CC(=O)O [DTPA, diethylenetriaminepentaacetic acid] | 28 | 75% | 2 fold | 50% | 250^## ppm | 125^## ppm | –
250 ppm | 250^# ppm | O=P(O)(O)CN(CCN(CP(=O)(O)O)CP(=O)(O)O)CCN(CP(=O)(O)O)CP(=O)(O)O [DTPMP, Diethylenetriaminepentakis (methylenephosphonic acid)] | 23 | 75% | 2 fold | 50% | 62.5^## ppm | 15.6^## ppm | boost of antibacterial efficacy of piroctone olamine alone (fold) ([2]; 3.125 ppm piroctone olamine combined with chelator (62.5 ppm DTPMP or 250 ppm chelator)): 4 fold
